Results taken from patent US10781203B2, “Nontoxic compounds for the treatment and prevention of herpesvirus infections” (The Penn State Research Foundation, priority 2016, dated 2020).

Experiments:
HSV-1 = assay: Virus titer analysis of HSV; assay type: cell-based; conditions: MOI=3; harvested at 24 hpi
From the text: FIGS. 10A-10B show data to provide support for Retro94 and derivatives being effective against other herpesviruses. […] Samples were harvested at 24 hpi. Representative data shown are from independent replicates. FIG. 10B provides a table showing low nanomolar EC50 values of Retro94F against other herpesviruses.

MCMV = assay: Viral titers of MCMV-infected fibroblasts; assay type: cell-based, mouse; conditions: treated at 2 hpi; 6 dpi (FIG. 7C)
Experimental: FIG. 7A is a graph showing viral titers at 15 dpi of fibroblasts infected with various strains of HCMV (MOI=0.05) and treated with DMSO or Retro94 at 2 hpi. Media was changed and fresh Retro94 was added at 6 dpi. Bright field images representing CPE of above infections shown at right. FIG. 7B show HCMV-infected ARPE-19 cells (TB40, MOI=3) at 21 dpi treated with DMSO or Retro94 ([…]). Infected cells detected by monitoring mCherry (red) expressed by TB40 virus. Scale bars: 1 mm. The table below images show number of foci detected, average area and standard error of the mean. P<0.00001. […]
For MCMV growth curve analysis, samples were titrated on NIH 3T3 cells and titers were calculated using the 50% tissue culture infective dose method. Both HCMV virus stocks and samples for growth curves were titrated by serial dilutions on MRC5 cells and quantified by the immunological detection of immediate-early proteins as previously described (Britt W J. Human cytomegalovirus: propagation, quantification, and storage. Curr Protoc Microbiol. 2010; Chapter 14: Unit 14E.3). The numbers of stained nuclei were acquired on a Nikon Eclipse Ti Inverted microscope and fluorescent nuclei were quantified using the NIS Elements Software. […] The number and size of foci were quantified using NIS Elements software.

HCMV = HCMV multi-step growth curve (MOI=0.05); assay type: cell-based, Human cytomegalovirus (HCMV); conditions: MOI 0.05 pfu/cell; 15 dpi; media exchanged and fresh drug added at 6 dpi
Experimental: Infections were done at an MOI of 0.05 for multi-step growth curves and MOI 3 for single-step growth curves. Infections were done on NHDFs unless otherwise noted. Virus was incubated with cells for 2 hours before addition of fresh media. For growth curve analyses, virus was harvested at the indicated time-points for each experiment by scraping the cells into the medium, sonicating 10 times with 1 second pulses, vortexing for 15 seconds, and centrifuging at 13,000 rpm for 10 min. Supernatants were collected, aliquoted and flash-frozen in liquid nitrogen before storage at −80° C.
For MCMV growth curve analysis, samples were titrated on NIH 3T3 cells and titers were calculated using the 50% tissue culture infective dose method. Both HCMV virus stocks and samples for growth curves were titrated by serial dilutions on MRC5 cells and quantified by the immunological detection of immediate-early proteins as previously described (Britt W J. Human cytomegalovirus: propagation, quantification, and storage. Curr Protoc Microbiol. 2010; Chapter 14: Unit 14E.3). The numbers of stained nuclei were acquired on a Nikon Eclipse Ti Inverted microscope and fluorescent nuclei were quantified using the NIS Elements Software. Images of viral foci from infection of ARPE19 cells were also acquired on Eclipse Ti Inverted microscope. The number and size of foci were quantified using NIS Elements software. […]

For Cc1nc(-c2ccc(C3N(C)c4ccccc4C(=O)N3c3ccccc3)s2)cs1 (stereo not drawn) [Retro94, 1-Methyl-2-(5-(2-methylthiazol-4-yl)thiophen-2-yl)-3phenyl-2,3-dihydroquinazolin-4(1H)-one], which “decrease of levels of HSV-1” value (HSV-1) is on record?
Its value is about 90%.

What about the “decrease of MCMV titer” value (MCMV) of the same molecule?
The value was about 3 logs.

What about the “reduction in the amount of infectious virus produced” value (HCMV) of the same molecule?
Its value is “five”.
